This note sets out measurements from paper PMC5706701, “Development of a homogenous high-throughput assay for inositol hexakisphosphate kinase 1 activity” (PLoS ONE, 2017).

Where a name gives a salt, the structure may show the parent alone.

The target of this assay is T1, Human IP6K1 (Homo sapiens, UniProt Q92551).
T1 construct: GST (N, cleaved yes); made in house; host or cells: C43 E. coli, pGEX-6P-2
Briefly: IP6K1 high-throughput screen of the Sigma LOPAC (ADP-Glo Max, single point).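 Also: final compound concentration 10µM in 5% DMSO.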 In kind it is biochemical. In general terms: ADP-Glo first removes unused ATP, then detects ADP through luciferase.

[1] abbreviates: LOPAC single-point screen, ADP-Glo Max raw signal per well.
The mark [2] stands for this setting: LOPAC single-point screen, Z-score from raw signal with plate average and StDev.
Setting [3] is: LOPAC single-point screen, ADP-Glo Max luminescence raw signal per well.
Where [4] appears, read: LOPAC single-point screen, Z-score relative to plate average and StDev.
The mark [5] stands for this setting: Sigma LOPAC single-point screen, ADP-Glo Max raw signal per well.
[6] abbreviates: Sigma LOPAC single-point screen, Z-score from plate average and StDev.
Setting [7] is: LOPAC single-point screen, Z-score against plate average and StDev.
Setting [8] is: LOPAC single-point screen, Z-score from plate average and StDev.

T1 sequence (Q92551 whole entry): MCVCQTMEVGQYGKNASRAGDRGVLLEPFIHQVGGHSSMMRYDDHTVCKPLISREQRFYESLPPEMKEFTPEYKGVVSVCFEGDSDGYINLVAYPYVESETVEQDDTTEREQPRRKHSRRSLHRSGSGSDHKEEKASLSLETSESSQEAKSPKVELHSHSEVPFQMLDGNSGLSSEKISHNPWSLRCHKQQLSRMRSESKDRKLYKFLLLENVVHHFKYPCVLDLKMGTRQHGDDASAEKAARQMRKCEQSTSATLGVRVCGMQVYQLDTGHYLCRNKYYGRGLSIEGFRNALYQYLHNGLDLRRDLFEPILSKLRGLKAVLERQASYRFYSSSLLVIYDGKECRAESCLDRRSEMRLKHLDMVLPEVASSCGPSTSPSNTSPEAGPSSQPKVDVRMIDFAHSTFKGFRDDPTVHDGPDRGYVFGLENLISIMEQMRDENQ

`COc1ccc(CCN(C)CCc2ccc(OC)c(OC)c2)cc1OC.Cl` [YS-035 hydrochloride]: the “Raw Signal” value under setting [1] is recorded as 55463. Under setting [2], this compound yielded a Z-score of -0.109.
Take `OCc1cc(C(O)CNCCCCCCOCCCCc2ccccc2)ccc1O` (centres unmarked) [Salmeterol]: under setting [3], the “Raw Signal” value is listed as 52718. The Z-score under setting [4] is given as -0.6423.
As to `Nc1nc(Nc2ccccc2)nc2c1ncn2[C@@H]1O[C@H](CO)[C@@H](O)[C@H]1O` [2-Phenylaminoadenosine], the “Raw Signal” value under setting [1] is 55292. The Z-score under setting [2] is listed as -0.1422.
Consider `Cl.Cl.Fc1ccc(C(OCCN2CCN(CCCc3ccccc3)CC2)c2ccc(F)cc2)cc1` [GBR-12909 dihydrochloride], for which the “Raw Signal” value under setting [5] was 60047. Under setting [6], this compound returned a Z-score of 0.9911.
Regarding `CC(C)C(=O)c1c(C(C)C)nn2ccccc12` [Ibudilast], the “Raw Signal” value under setting [1] came to 53701. This compound came in with a Z-score under setting [2] of -0.2977.
For `OC[C@H]1O[C@@H](n2cnc3c(Nc4ccccc4)ncnc32)[C@H](O)[C@@H]1O` [N6-Phenyladenosine] the same measures were 55025 and -0.194.
On to `O=C(O)[C@@H]1[C@H](C(=O)O)[C@H]2CC[C@@H]1O2` [Endothall], for which the “Raw Signal” value under setting [5] came to 58370. Further, under setting [6], the Z-score was 0.6505.
Turning to NS 521 oxalate, under setting [1], the “Raw Signal” value is given as 56111. The Z-score under setting [7] is given as 0.2886.
As to `O=C1NC(c2cccc([N+](=O)[O-])c2)=CCN1c1ccccc1O` [Icilin], the “Raw Signal” value under setting [3] turned out to be 49844. Under setting [4], this compound returned a Z-score of -1.081.
For `NC(=O)c1ccccc1` [Benzamide] the same measures were 54873 and -0.5354.
Consider `NCC(=O)NCCC(c1ccccc1)c1ccccc1` [N-(3,3-Diphenylpropyl)glycinamide], for which, under setting [3], the “Raw Signal” value is listed as 66051. The Z-score under setting [8] turned out to be 2.21.
As for `Nc1ncnc2c1c(-c1ccc(Oc3ccccc3)cc1)cn2C1CCCC1`, the “Raw Signal” value under setting [1] is reported as 53911. This compound came in with a Z-score under setting [2] of -0.2551.
The like results for `CC1COc2c(N3CCN(C)CC3)c(F)cc3c(=O)c(C(=O)O)cn1c23` (centres unmarked) [Ofloxacin] were, in that order, 52269 and -0.357.
Take `O=C1O/C(=C/Br)CCC1c1cccc2ccccc12` (centres unmarked) [Bromoenol lactone]: the “Raw Signal” value under setting [3] stood at 52508. The same compound registered a Z-score under setting [4] of -0.952.
For `CC(C(=O)O)c1ccc(CC2CCCC2=O)cc1` (centres unmarked) [loxoprofen], the “Raw Signal” value under setting [3] is recorded as 49153. Further, the Z-score under setting [4] is -0.8805.
`CC(=O)NBr` [N-Bromoacetamide]: the “Raw Signal” value under setting [5] stood at 65186. Also, the Z-score under setting [6] is on record as 1.281.
Take `Br.Br.N=C(N)SCCc1ccc(CCSC(=N)N)cc1` [1,4-PBIT dihydrobromide]: under setting [3], the “Raw Signal” value worked out at 52088. This compound also came in with a Z-score under setting [4] of -0.7647.
Take `NC(=O)c1cnccn1` [Pyrazinecarboxamide]: the “Raw Signal” value under setting [5] is on record as 58526. This compound also gave a Z-score under setting [6] of 0.4861.
For the compound `CC1(C(=O)O)C2CCC(O2)C1(C)C(=O)O` (centres unmarked) [Cantharidic Acid], the “Raw Signal” value under setting [5] was determined as 61779. Under setting [6], this compound had a Z-score of 0.6809.
With `CC(C)NC(C)Cc1ccc(I)cc1` (centres unmarked) [Iofetamine hydrochloride], the “Raw Signal” value under setting [1] was determined as 55439. Besides, the Z-score under setting [7] was found to be 0.1757.
As for `Cl.Clc1ccc(Cn2c(CN3CCCC3)nc3ccccc32)cc1` [Clemizole hydrochloride], the “Raw Signal” value under setting [1] turned out to be 56495. The compound also returned a Z-score under setting [2] of -0.2498.
As for `NCCS(=O)(=O)O` [Taurine], under setting [3], the “Raw Signal” value was 52621. The compound also yielded a Z-score under setting [4] of -0.6611.
For `CC(Cc1ccc(O)c(O)c1)C(C)Cc1ccc(O)c(O)c1` (centres unmarked), the “Raw Signal” value under setting [1] is listed as 56278. The Z-score under setting [7] amounted to 0.3166.
The like results for `COc1cc2c(c(OC)c1OC)-c1ccc(OC)c(=O)cc1[C@@H](NC(C)=O)CC2` [Colchicine] were, in that order, 58343 and 0.07572.
Regarding `CC(C)(C)c1o[nH]c(=O)c1CC(N)C(=O)O` (centres unmarked) [ATPA], the “Raw Signal” value under setting [1] was determined as 57342. Besides, the Z-score under setting [2] is listed as -0.1006.
Turning to `C[N+]1(C)CCN(c2ccccc2)CC1.[I-]`, under setting [1], the “Raw Signal” value is recorded as 55993. This compound came in with a Z-score under setting [7] of 0.1677.
Turning to `CNc1cc(NS(=O)(=O)c2ccc(N)cc2)nc(NC)n1.Cl.Cl` [Ro 04-6790 dihydrochloride], the “Raw Signal” value under setting [3] is given as 63150. Under setting [8], the Z-score came out at 1.384.
With `CC(N)Cc1c[nH]c2ccc(OCc3cccs3)cc12` (centres unmarked) [BW 723C86], under setting [3], the “Raw Signal” value was 55162. In addition, the Z-score under setting [4] is reported as -0.4845.
Regarding `NC(=O)c1ncn([C@@H]2O[C@H](CO)[C@@H](O)[C@H]2O)n1` [Ribavirin], the “Raw Signal” value under setting [1] is 54731. Under setting [2], this compound yielded a Z-score of -0.2512.
For `N[C@@H](Cc1c[nH]c2ccccc12)C(=O)O` [L-Tryptophan], the “Raw Signal” value under setting [5] stood at 60593. The compound also returned a Z-score under setting [6] of 0.8877.
For `COc1cc(-c2ccc(=O)[nH]n2)ccc1OC(F)F` [Zardaverine], the “Raw Signal” value under setting [1] was 57604. Moreover, the Z-score under setting [7] was found to be 0.307.
In the case of `Cc1c2ccncc2c(C)c2c1[nH]c1ccccc12` [Ellipticine], under setting [3], the “Raw Signal” value turned out to be 50782. Besides, the Z-score under setting [4] was -0.8906.
In the case of `N[C@H](CO)C(=O)O` [D-Serine], the “Raw Signal” value under setting [1] turned out to be 53973. Under setting [2], the Z-score is listed as -0.3984.
For `NS(=O)(=O)c1cc(C(=O)O)c(NCc2ccco2)cc1Cl` [Furosemide] the same measures were 53546 and -0.3292.
For the compound `CNC(=O)[C@H]1O[C@@H](n2cnc3c(NCc4cccc(I)c4)ncnc32)[C@H](O)[C@@H]1O` [IB-MECA], the “Raw Signal” value under setting [3] was 49701. Under setting [4], this compound had a Z-score of -0.7885.
On to `NC(=O)CI` [Iodoacetamide], for which the “Raw Signal” value under setting [3] is 64727. Further, the Z-score under setting [8] was 1.942.
With `CN1C(C(=O)Nc2ccccn2)=C(O)c2ccccc2S1(=O)=O` [Piroxicam], the “Raw Signal” value under setting [5] stood at 59564. The Z-score under setting [6] turned out to be 0.8688.
The like results for `N[C@@H](COP(=O)(O)O)C(=O)O` [O-Phospho-L-serine] were, in that order, 59842 and 0.9155.
For `O=C(O)Cc1ccccc1Nc1c(Cl)cccc1Cl` [Diclofenac sodium], the “Raw Signal” value under setting [1] was found to be 53274. Under setting [2], this compound showed a Z-score of -0.3845.
The like results for `CN(C)CCCCSC(=N)N.Cl.Cl` [SKF 91488 dihydrochloride] were, in that order, 55411 and -0.1191.
The like results for `CCN1C[C@]2(C)CC[C@H](O)[C@]34C1[C@@H](C[C@H]23)[C@@]1(O)C[C@H](OC)[C@H]2C[C@@H]4[C@@H]1[C@H]2O` [Karakoline] were, in that order, 53043 and -0.2269.
Take `CCc1cccc(N(C)C(N)=Nc2cccc3ccccc23)c1` [CNS-1102]: the “Raw Signal” value under setting [5] is 64774. Moreover, the Z-score under setting [6] is 1.208.
Turning to `C[C@H](CS)C(=O)N1CCC[C@H]1C(=O)O` [Captopril], under setting [1], the “Raw Signal” value worked out at 58254. Under setting [7], this compound registered a Z-score of 0.06004.
Consider `Nc1nc(OCc2ccccc2)c2nc[nH]c2n1` [O6-benzylguanine], for which the “Raw Signal” value under setting [1] turned out to be 56623. Under setting [2], the Z-score is reported as -0.2272.
`Oc1ccc(Cn2cc[nH]c2=S)cc1` [1-(4-Hydroxybenzyl)imidazole-2-thiol]: under setting [3], the “Raw Signal” value was 52381. The compound further registered a Z-score under setting [4] of -0.5658.
Consider `COc1ccc(CCCOC(Cn2ccnc2)c2ccc(OC)cc2)cc1` (centres unmarked) [SKF 96365], for which, under setting [1], the “Raw Signal” value came to 56420. Further, the Z-score under setting [7] is 0.07697.
With `CN1CCc2cccc(Cl)c2CC1` [SKF 86466], under setting [1], the “Raw Signal” value turned out to be 54503. The compound also displayed a Z-score under setting [2] of -0.2955.
As to `C=C(C)[C@H]1CC=C(C(=O)O)CC1` [(-)-Perillic acid], the “Raw Signal” value under setting [5] was found to be 58838. The same compound returned a Z-score under setting [6] of 0.5467.
For the compound `COC(=O)C1=C(C)NC(C)=C([N+](=O)[O-])C1c1ccccc1C(F)(F)F` (racemic) [(±)-Bay K 8644], the “Raw Signal” value under setting [3] was 52853. In addition, the Z-score under setting [4] is -0.8912.
Take `CCCn1c(=O)[nH]c(=O)c2nc[nH]c21` [3-n-Propylxanthine]: the “Raw Signal” value under setting [5] was found to be 57454. The same compound came in with a Z-score under setting [6] of 0.5142.
The like results for `NC(=O)C1=CN([C@@H]2O[C@H](COP(=O)([O-])OP(=O)([O-])OC[C@H]3O[C@@H](n4cnc5c(N)ncnc54)[C@H](OP(=O)([O-])[O-])[C@@H]3O)[C@@H](O)[C@H]2O)C=CC1.[Na+].[Na+].[Na+].[Na+]` [NADPH tetrasodium] were, in that order, 57869 and 0.584.
`CNCCNS(=O)(=O)c1cccc2cnccc12.Cl.Cl` [H-8 dihydrochloride]: the “Raw Signal” value under setting [1] came to 53425. Under setting [2], this compound yielded a Z-score of -0.1627.
For `NC(=O)c1cc(N2CC2)c([N+](=O)[O-])cc1[N+](=O)[O-]` [CB 1954] the same measures were 55279 and -0.4639.
As for `CC1CNCCN1S(=O)(=O)c1cccc2cnccc12.Cl.Cl` (centres unmarked) [H-7 dihydrochloride], the “Raw Signal” value under setting [3] amounted to 51716. The Z-score under setting [4] was -0.7009.
In the case of `CCS(=O)(=O)Nc1cccc(C(=C2CCCCC2)c2cnc[nH]2)c1` [A-315456], the “Raw Signal” value under setting [1] came out at 57716. Moreover, the Z-score under setting [7] was -0.03471.
Regarding `O=C(O)c1cc(=O)c2c(Cl)cc(Cl)cc2[nH]1` [5,7-Dichlorokynurenic acid], under setting [3], the “Raw Signal” value was 49912. Under setting [4], the Z-score is recorded as -1.067.
For the compound `C[C@H](O)C(=O)C1=Nc2c(nc(N)[nH]c2=O)NC1` [Sepiapterin], the “Raw Signal” value under setting [5] came out at 58753. The same compound had a Z-score under setting [6] of 0.5302.
`Clc1ccc2c(c1)C(N1CCNCC1)=Nc1ccccc1O2` [Amoxapine]: under setting [3], the “Raw Signal” value amounted to 50961. Moreover, the Z-score under setting [4] is -1.224.
